This note sets out measurements from patent US7763656B2, “Use of Acetylamino benzoic acid compounds for nonsense suppression and the treatment of disease” (PTC Therapeutics, Inc., priority 2002, dated 2010).

Where “and” joins values, the source holds several entries; their conditions need not be identical. Equal entries are not always repeated.

With `Cc1ccc(OCC(=O)Nc2cccc(C(=O)O)c2)cc1C` [Compound 1, 3-[2-(3,4-dimethyl-phenoxy)-acetylamino]-benzoic acid], the melting point lay in the range of 201 to 202 °C.
Then `CC(C)c1ccccc1SCC(=O)Nc1cccc(C(=O)O)c1` [Compound 3, 3-[2-(2-isopropyl-phenylsulfanyl)-acetylamino]-benzoic acid], with 178 to 179 °C.
As for `Cc1cc(OCC(=O)Nc2cccc(C(=O)O)c2)ccc1C(C)C` [Compound 4, 3-[2-(4-isopropyl-3-methyl-phenoxy)-acetylamino]-benzoic acid], the melting point was 191 to 192 °C and 188 to 189 °C.
`Cc1cc(OCC(=O)Nc2cccc(C(=O)O)c2)cc(C(C)C)c1` [Compound 5, 3-[2-(3-isopropyl-5-methyl-phenoxy)-acetylamino]-benzoic acid]: the melting point was 183 to 184 °C.
The compound `CC(C)c1cccc(OCC(=O)Nc2cccc(C(=O)O)c2)c1` [Compound 6, 3-[2-(3-isopropyl-phenoxy)-acetylamino]-benzoic acid] registered a melting point of 166 to 167 °C.
Then `CC(C)c1ccc(OCC(=O)Nc2cccc(C(=O)O)c2)cc1` [Compound 7, 3-[2-(4-isopropyl-phenoxy)-acetylamino]-benzoic acid], with 171 to 174 °C; and `Cc1cc(OCC(=S)Nc2cccc(C(=O)O)c2)ccc1C(C)C` [Compound 8, 3-[2-(4-isopropyl-3-methyl-phenoxy)-thioacetylamino]-benzoic acid], with 174 to 176 °C and 174 to 175 °C.
Under `Cc1ccccc1-c1ccc(OCC(=O)Nc2cccc(C(=O)O)c2)cc1` [Compound 9, 3-[2-(2’-methyl-biphen-4-yloxy)-acetylamino]-benzoic acid] stands 220 to 221 °C.
For the compound `Cc1cccc(-c2ccc(OCC(=O)Nc3cccc(C(=O)O)c3)cc2)c1` [Compound 10, 3-[2-(3’-methyl-biphen-4-yloxy)-acetylamino]-benzoic acid], the melting point was in the range of 225 to 226 °C.
For `O=C(COc1ccc(Cl)c(Cl)c1)Nc1cccc(C(=O)O)c1` [Compound 12, 3-[2-(3,4-dichlorophenoxy)-acetylamino]-benzoic acid], the melting point was in the range of 219 to 221 °C.
For `O=C(COc1ccc(-c2ccccc2)cc1)Nc1cccc(C(=O)O)c1` [Compound 13, 3-[2-(biphen-4-yloxy)-acetylamino]-benzoic acid], the melting point lay within 245 to 246 °C.
Regarding `CCC(C)(C)c1ccc(OCC(=O)Nc2cccc(C(=O)O)c2)cc1` [Compound 15, 3-{2-[4-(1,1-dimethyl-propyl)-phenoxy]acetylamino)-benzoic acid], the melting point is 164 to 165 °C.
In turn, `CCCc1ccc(OCC(=O)Nc2cccc(C(=O)O)c2)cc1` [Compound 16, 3-[2-(4-propyl-phenoxy)-acetylamino]-benzoic acid] registered a melting point of 185 to 186 °C.
Then `CCc1ccc(OCC(=O)Nc2cccc(C(=O)O)c2)cc1` [Compound 18, 3-[2-(4-ethyl-phenoxy)-acetylamino]-benzoic acid], with 209 to 211 °C; and `O=C(COc1ccc2c(c1)CCC2)Nc1cccc(C(=O)O)c1` [Compound 19, 3-[2-(indan-5-yloxy)-acetylamino]-benzoic acid], with 203 to 204 °C.
As for `O=C(COc1ccc2c(c1)CCCC2)Nc1cccc(C(=O)O)c1` [Compound 20, 3-[2-(5,6,7,8-tetrahydro-naphthalen-2-yloxy)-acetylamino]-benzoic acid], the melting point lay in the range of 199 to 201 °C.
`CC(C)(c1ccccc1)c1ccc(OCC(=O)Nc2cccc(C(=O)O)c2)cc1` [Compound 22, 3-{2-[4-(1-methyl-1-phenyl-ethyl)-phenoxy]-acetylamino}-benzoic acid] gave a melting point of 207 to 208 °C.
`O=C(COc1ccc(C2CCCC2)cc1)Nc1cccc(C(=O)O)c1` [Compound 24, 3-[2-(4-cyclopentyl-phenoxy)-acetylamino]-benzoic acid] displayed a melting point of 212 to 213 °C.
On to `Cc1cc(OCC(=O)Nc2cccc(C(=O)O)c2)ccc1Cl` [Compound 25, 3-[2-(4-chloro-3-methyl-phenoxy)-acetylamino]-benzoic acid], for which the melting point fell in the range of 197 to 198 °C.
In the case of `CCOc1ccc(OCC(=O)Nc2cccc(C(=O)O)c2)cc1` [Compound 27, 3-[2-(4-ethoxy-phenoxy)-acetylamino]-benzoic acid], the melting point fell in the range of 191 to 192 °C.
With `O=C(COc1ccc(C#Cc2ccccc2)cc1)Nc1cccc(C(=O)O)c1` [Compound 28, 3-[2-(4-phenylethynyl-phenoxy)-acetylamino]-benzoic acid], the melting point lay in the range of 242 to 244 °C.
`CC(C)c1ccc(C(=O)CC(=O)Nc2cccc(C(=O)O)c2)cc1` [Compound 29, 3-[3-(4-isopropyl-phenyl)-3-oxo-propionylamino]-benzoic acid] gave a melting point of 262 to 263 °C.
For the compound `Cc1cc(OCC(=O)Nc2cccc(C(=O)O)c2Cl)ccc1C(C)C` [Compound 30, 2-chloro-3-[2-(4-isopropyl-3-methyl-phenoxy)-acetylamino]-benzoic acid], the melting point was 161 to 162 °C.
Regarding `Cc1cc(OCC(=O)Nc2cc(C(=O)O)ccc2Cl)ccc1C(C)C` [Compound 31, 4-chloro-3-[2-(4-isopropyl-3-methyl-phenoxy)-acetylamino]-benzoic acid], the melting point was 218 to 220 °C.
Under `O=C(COc1ccc(C(=O)c2ccccc2)cc1)Nc1cccc(C(=O)O)c1` [Compound 32, 3-[2-(4-benzoyl-phenoxy)-acetylamino]-benzoic acid] stands 208 to 210 °C; under `CC(C)c1ccc(OC2CCN(c3cccc(C(=O)O)c3)C2=O)cc1` (centres unmarked) [Compound 33, 3-[3-(4-Isopropyl-phenoxy)-2-oxo-pyrrolidin-1-yl]-benzoic acid], 210 to 211 °C; under `CC(C)c1ccc(OC2CCN(c3cccc(C(=O)[O-])c3)C2=O)cc1.[Na+]` (centres unmarked) [Compound 34, 3-[3-(4-Isopropyl-phenoxy)-2-oxo-pyrrolidin-1-yl]-benzoic acid Sodium Salt], 164 to 165 °C.
For the compound `O=C(O)c1cccc(N2CCC(Oc3ccc4c(c3)CCC4)C2=O)c1` (centres unmarked) [Compound 35, 3-[3-(Indan-5-yloxy)-2-oxo-pyrrolidin-1-yl]-benzoic acid], the melting point is 182 to 184 °C.
In the case of `O=C(O)c1cccc(N2CCC(Oc3ccc4c(c3)OCO4)C2=O)c1` (centres unmarked) [Compound 36, 3-[3-(Benzo[1,3]dioxol-5-yloxy)-2-oxo-pyrrolidin-1-yl]-benzoic acid], the melting point is 194 to 197 °C.
With `O=C(O)c1cccc(N2CCC(Oc3ccc(Oc4ccc(C(F)(F)F)cc4)cc3)C2=O)c1` (centres unmarked) [Compound 37, 3{2-Oxo-3-[4-(4-trifluoromethyl-phenoxy)-phenoxy]-pyrrolidin-1-yl}-benzoic acid], the melting point fell in the range of 175 to 178 °C.
In the case of `CCc1cccc(OC2CCN(c3cccc(C(=O)O)c3)C2=O)c1` (centres unmarked) [Compound 38], the melting point fell in the range of 150 to 152 °C.
`O=C(O)c1cccc(N2CCC(Oc3ccc(Oc4ccccc4)cc3)C2=O)c1` (centres unmarked) [Compound 39, 3-[2-Oxo-3-(4-phenoxy-phenoxy)-pyrrolidin-1-yl]-benzoic acid] gave a melting point of 185 to 187 °C.

As usually defined, the melting point is the temperature of the solid-liquid transition.
